How the values were obtained:
[1] = system: MC38 tumors; test: MC38 flank tumor model, single intravenous dose; format: in vivo, mouse; settings: for tumor burden: MC38, single iv dose day 7: LND 1 5 nmol CDN, parent CDN 5 or 100 nmol, ADU-S100 100 nmol
Method: Specifically, a single intravenous injection of LND 1 prepared as described in Example 3 was compared to intravenous injection of parent CDN for effects on tumor growth in a mouse model of colon adenocarcinoma. Tumors were established in 8-10 week old C57BL/6 mice by inoculating the right flank with a subcutaneous injection of 5x10^5 MC38 cells suspended in PBS. On day 7 post-inoculation, the mice were administered an intravenous injection of either parent CDN or LND-formulated CDN at a dose of 5 nmol CDN. Tumor area was measured on days 7, 10, and 12 and compared to untreated mice that received an intratumoral injection of PBS on day 7. The mice were then sacrificed on day 13, and excised tumors were weighed.
Mice were inoculated with MC38 tumors as described above. On day 7 post tumor inoculation, mice were administered a single intravenous injection of parent CDN at a dose of 5 nmol (n=5) or 100 nmol (n=10), ADU-S100 at a dose of 100 nmol (n=10), or LND 1 at a dose of 5 nmol CDN (n=20). Following administration, tumor growth and animal survival was monitored and compared to untreated mice that received an injection of PBS.
It was further investigated whether intravenous administration of LND-formulated CDN was effective in treating well-established MC38 tumors. Specifically, MC38 tumors were allowed to grow for 10 days post-inoculation (mean size of about 45 mm^2), whereupon a single intravenous dose of LND 1 was administered (5 nmol CDN). Control mice were administered PBS only. […] Though mice administered LND-formulated CDN experience some weight loss (about 10% body weight), they recovered full body weight within about 5 days of administration (data not shown).
Systemic administration of LND or liposome particles comprising CDN-PEG-Lipid was compared in the MC38 tumor model. […] The effect on tumor area and survival was evaluated and compared to untreated mice receiving an injection of PBS alone. Tumor size was measured by area (longest dimension x perpendicular dimension) and the mice were euthanized when the tumor area exceeded 150 mm^2 or tumor ulceration became severe.

[2] = system: 4T1-Luc tumor; test: Orthotopic 4T1 tumor model, single intravenous dose; format: in vivo, mouse; settings: 4T1 orthotopic, single iv day 7: LND 1 10 nmol CDN; parent CDN 200 nmol
Method: To evaluate therapeutic efficacy in the aggressive 4T-1 orthotopic tumors, BALB/c mice were inoculated with 5 x 10^5 4T1-Luc tumor cells that were injected into the fourth mammary fat-pad. At 7 days post tumor inoculation, mice were administered CDN formulated as LND 1 at a dose of 10 nmol CDN or parent CDN at a dose of 200 nmol CDN per mouse by intravenous injection. Control mice were administered PBS only.

Structure (SMILES)	tumor burden [1]	tumor area and mass ([1]; MC38, single iv 5 nmol CDN on day 7, area days 7-12, weight day 13, vs untreated)	tumor growth and survival [2]
Nc1ncnc2c1ncn2[C@@H]1O[C@@H]2COP(O)(=S)O[C@@H]3C(O)[C@@H](COP(O)(=S)O[C@H]2[C@H]1O)O[C@H]3n1cnc2c(N)ncnc21 (stereo partly shown) [ADU-S100, dithio-(Rp, Rp)-[cyclic[A(2′,5′)pA(3′,5′)p]], reference compound]	no reduction of tumor burden		
CCN(CC)CC.Nc1nc2c(ncn2[C@@H]2O[C@@H]3COP(=O)(S)O[C@H]4[C@H]5OC[C@]4(COP(=O)(O)O[C@@H]2[C@@H]3O)O[C@H]5n2cnc3c(N)ncnc32)c(=O)[nH]1 (stereo partly shown) [parent CDN]	no reduction of tumor burden	no effect	no impact on tumor growth or overall survival

From patent publication US20230149560A1, “LIPID COMPOSITIONS FOR DELIVERY OF STING AGONIST COMPOUNDS AND USES THEREOF” (priority 2020, published 2023)
